From ChEMBL document CHEMBL3046239, “Lethal and Antifeedant Substance from Rhizome of Alpinia galanga SW. (Zingiberaceae)” (1998)

How the values were obtained:
Format in all cases: functional
Plutella xylostella [1] = assay: Antifeedant effect in Plutella xylostella (diamondback moth) in compound treated fresh cabbage leaves assessed as feeding reduction at 66.4 ug/cm'2 by no-choice leaf disk method
Callosobruchus chinensis [2] = assay: Lethal effect on Callosobruchus chinensis assessed as mortality measured per insect after 24 hr treatment by topical application method
Plutella xylostella [3] = assay: Lethal effect on Plutella xylostella (diamondback moth) in fresh cabbage leaves assessed as mortality measured per insect after 48 hr treatment by topical application method
Callosobruchus chinensis [4] = assay: Lethal effect on Callosobruchus chinensis assessed as mortality at 8 ug/insect measured 24 hr after treatment by topical application method
Plutella xylostella [5] = assay: Lethal effect on Plutella xylostella (diamondback moth) in fresh cabbage leaves assessed as mortality at 8 to 10 ug/insect measured 48 hr after treatment by topical application method
Plutella xylostella [6] = assay: Antifeedant effect in Plutella xylostella (diamondback moth) in compound treated fresh cabbage leaves assessed as feeding reduction at 106.2 ug/cm'2 by no-choice leaf disk method
Plutella xylostella [7] = assay: Lethal effect on Plutella xylostella (diamondback moth) in fresh cabbage leaves assessed as mortality at 10 ug/insect measured 24 hr after treatment by topical application method

For C=C[C@H](OC(C)=O)c1ccc(OC(C)=O)cc1 [1'-ACETOXYCHAVICOL ACETATE], the AFI (Plutella xylostella [1]) was 88.5%, the LD50 (Callosobruchus chinensis [2]) was 3 µg and the LD50 (Plutella xylostella [3]) was 4.5 µg. The mortality (Callosobruchus chinensis [4]) was 95%, the mortality (Plutella xylostella [5]) was 100% and the AFI (Plutella xylostella [6]) was 98.8%. The mortality (Plutella xylostella [7]) was 83.3%.
